{"source": "patent US20090247492A1", "about": "“MANGANESE BASED ORGANOMETALLIC COMPLEXES, PHARMACEUTICAL COMPOSITIONS AND DIETETIC PRODUCTS” (MEDESIS PHARMA S.A.,, priority 2003, published 2009)", "key": {"[1]": {"assay": "activity of the sterol constituent (test not specified)", "settings": "pure sterol in place of sitosterol"}, "[2]": {"tested_on": "edema produced by injection of adriamycin under the arch of the hind paw of the rat", "settings": "cf JL Jadot; cited from earlier work"}, "[3]": {"settings": "iv-injected, rat; cited from earlier work"}, "[4]": {"tested_on": "edema produced by injection of adriamycin under the arch of the hind paw of the rat", "assay": "adriamycin test: paw edema in the Wistar rat (anti-free radical activity)", "format": "in vivo", "design": "Paw volume, group mean: unit not given beside the values", "settings": "for Paw volume, individual animals / Paw volume, group mean / Percentage paw edema, individual animals / Percentage paw edema, group mean: 100 mg/kg IP daily; for Paw volume, group mean / Percentage paw edema, group mean: 10 rats; for Percentage of edema inhibition (protection): vs olive oil control, Diosmine 100 mg/kg IP, Example 4 1 ml/kg IP", "experimental": "The adriamycin test is a specific test used to show evidence of the anti-free radical activity of a test substance. This test is described in G. Jadot, Cedema from adriamycin in the Wistar rat. SuperOxide Dismutases, p 73-77, Masson Ed., Paris, 1988.\nOne hour following injection of Adriamycin, a temporary inflammatory response lasting 12 hours can be observed. This first phase corresponds to the release of histamine, serotonine and the accumulation of polynuclear neutrophiles. A second inflammatory phase commences on the third day following administration and continues for 5 days. During this inflammatory phase, vascular hyperpermeability […] endothelial cell membrane alteration produced by free radical oxidative damage. Steroidal and non-steroidal anti-inflammatory drugs are not effective during this second inflammatory phase.\nResearch into an anti-free radical activity in the rat by intra-peritoneal administration consists of measuring the reduction in edema produced by injection of adriamycin under the arch of the hind paw of the rat.\nMale Wistar rats were used for these tests, after a quarantine period of 15 days.\n(Edema was induced by subcutaneous injection of a 0.2 ml solution of adriamycin (2.5 mg/ml) in the arch of the right hind paw of the rat (Siegel's method modified by Jadot (1988)).\nThe compounds tested were administered 2 hours before the first measurements on the first day, and 1 hour before the measurements on the following days, until the 8th day.\nThe measurement of edema volume was determined by plethysmography and was performed immediately before injection of adriamycin on the first day (base measurement), and then every day at the same time.\nThe treatment was maintained for the entire duration of the study. The control group received the dosing vehicle only.\nFollowing the establishment of groups of 10 animals, daily intra-peritoneal administration was carried out according to the following scheme:\nNegative control: animals administered olive oil (1 ml/kg).\nPositive control: animals administered 100 mg/kg de diosmine (1 ml/kg).\nExample 4: animals administered example 4 (1 mil/kg)\nPaw edema, expressed as a percentage, is calculated for each animal at each time point:\nThe percentage reduction in paw oedema at each time point and for each group of animals are calculated as follows: […]\nAnti-free radical activity is shown by a significant reduction in paw volume in the treated group compared to the control group."}}, "note": "Several values for one entry are separate records, joined by “and”; a condition that tells them apart may be missing. Equal entries are not always repeated.", "data": [{"compound": "CC(C)[C@H](C)CC[C@@H](C)[C@H]1CC[C@H]2[C@@H]3CC=C4C[C@@H](O)CC[C@]4(C)[C@H]3CC[C@]12C", "note": "[campesterol]", "values": [{"measurement": "activity of pure sterol", "setting": "[1]", "result": "no activity"}]}, {"compound": "CC[C@H](CC[C@@H](C)[C@H]1CC[C@H]2[C@@H]3CC[C@H]4C[C@@H](O)CC[C@]4(C)[C@H]3CC[C@]12C)C(C)C", "note": "[sitostanol]", "values": [{"measurement": "activity of pure sterol", "setting": "[1]", "result": "no activity"}]}, {"compound": "bovine SOD: bovine superoxide dismutase enzyme", "values": [{"measurement": "Protection against edema from free radical damage", "setting": "[2]", "result": "possesses the same characteristics as Diosmine"}, {"measurement": "circulation half life", "setting": "[3]", "result": 7, "unit": "min"}]}, {"compound": "COc1ccc(-c2cc(=O)c3c(O)cc(O[C@@H]4O[C@H](CO[C@@H]5O[C@@H](C)[C@H](O)[C@@H](O)[C@H]5O)[C@@H](O)[C@H](O)[C@H]4O)cc3o2)cc1O", "note": "[Diosmine]", "values": [{"measurement": "Paw volume, individual animals", "setting": "[4]; D1 (base), before adriamycin, 100 mg/kg", "result": "116 and 108 and 102 (2×) and 105 and 120 and 113 and 107 and 103 and 91"}, {"measurement": "Paw volume, group mean", "setting": "[4]; D1 (base), before adriamycin", "result": 106.70}, {"measurement": "Paw volume in comparison to the negative control", "setting": "[4]; D2-D7, highest significance for Example 4 at D3 and D4 (p<0.001), disappears at D8", "result": "statistically significant difference"}, {"measurement": "Paw volume, individual animals", "setting": "[4]; D2", "result": "129 and 152 and 112 (2×) and 107 and 128 and 135 and 118 and 110 and 105"}, {"measurement": "Percentage paw edema, individual animals", "setting": "[4]; D2", "result": "11.21% and 40.74% and 9.80% (2×) and 1.90% and 6.67% and 19.47% and 10.28% and 6.80% and 15.38%"}, {"measurement": "Paw volume, group mean", "setting": "[4]; D2", "result": 120.80}, {"measurement": "Percentage paw edema, group mean", "setting": "[4]; D2", "result": 13.21, "unit": "%"}, {"measurement": "Percentage of paw edema, change versus control", "setting": "[4]; D2 to D5, most significant at D3 for Example 4 (p<0.001)", "result": "significant decrease"}, {"measurement": "Paw volume, individual animals", "setting": "[4]; D3", "result": "162 and 181 and 142 and 126 and 158 and 160 (2×) and 138 and 134 and 161"}, {"measurement": "Percentage paw edema, individual animals", "setting": "[4]; D3", "result": "39.66% and 67.59% and 39.22% and 20.00% and 31.67% and 41.59% and 49.53% and 35.29% and 30.10% and 76.92%"}, {"measurement": "Paw volume, group mean", "setting": "[4]; D3", "result": 152.20}, {"measurement": "Percentage paw edema, group mean", "setting": "[4]; D3", "result": 43.16, "unit": "%"}, {"measurement": "Percentage of edema inhibition (protection)", "setting": "[4]; D3", "result": 44.15, "unit": "%"}, {"measurement": "Paw volume, individual animals", "setting": "[4]; D4", "result": "152 (2×) and 121 and 180 and 143 and 172 and 158 and 142 and 223 and 187"}, {"measurement": "Percentage paw edema, individual animals", "setting": "[4]; D4", "result": "31.03% and 12.04% and 76.47% and 36.19% and 43.33% and 39.82% and 32.71% and 118.63% and 81.55% and 67.03%"}, {"measurement": "Paw volume, group mean", "setting": "[4]; D4", "result": 163.00}, {"measurement": "Percentage paw edema, group mean", "setting": "[4]; D4", "result": 53.88, "unit": "%"}, {"measurement": "Percentage of edema inhibition (protection)", "setting": "[4]; D4", "result": 36.98, "unit": "%"}, {"measurement": "Paw volume, individual animals", "setting": "[4]; D5", "result": "195 and 200 and 152 and 172 and 188 and 175 and 186 and 165 and 173 and 170"}, {"measurement": "Percentage paw edema, individual animals", "setting": "[4]; D5", "result": "68.10% and 85.19% and 49.02% and 63.81% and 56.67% and 54.87% and 73.83% and 61.76% and 67.96% and 86.81%"}, {"measurement": "Paw volume, group mean", "setting": "[4]; D5", "result": 177.6}, {"measurement": "Percentage paw edema, group mean", "setting": "[4]; D5", "result": 66.80, "unit": "%"}, {"measurement": "Percentage of edema inhibition (protection)", "setting": "[4]; D5", "result": 21.77, "unit": "%"}, {"measurement": "Paw volume, individual animals", "setting": "[4]; D6", "result": "193 and 194 and 153 and 179 and 177 and 172 and 199 and 167 and 183 and 158"}, {"measurement": "Percentage paw edema, individual animals", "setting": "[4]; D6", "result": "66.38% and 79.63% and 50.00% and 70.48% and 47.50% and 52.21% and 85.98% and 63.73% and 77.67% and 73.63%"}, {"measurement": "Paw volume, group mean", "setting": "[4]; D6", "result": 177.50}, {"measurement": "Percentage paw edema, group mean", "setting": "[4]; D6", "result": 66.72, "unit": "%"}, {"measurement": "Percentage of edema inhibition (protection)", "setting": "[4]; D6", "result": 12.03, "unit": "%"}, {"measurement": "Paw volume, individual animals", "setting": "[4]; D7", "result": "195 and 176 and 148 and 174 and 164 (2×) and 166 and 172 and 173 and 150"}, {"measurement": "Percentage paw edema, individual animals", "setting": "[4]; D7", "result": "68.10% and 62.96% and 45.10% and 65.71% and 36.67% and 46.90% and 60.75% and 60.78% and 67.96% and 64.84%"}, {"measurement": "Paw volume, group mean", "setting": "[4]; D7", "result": 168.20}, {"measurement": "Percentage paw edema, group mean", "setting": "[4]; D7", "result": 57.98, "unit": "%"}, {"measurement": "Percentage of edema inhibition (protection)", "setting": "[4]; D7", "result": 14.05, "unit": "%"}, {"measurement": "Paw volume, individual animals", "setting": "[4]; D8", "result": "180 and 173 and 145 and 156 and 165 and 164 (2×) and 175 and 159 and 154"}, {"measurement": "Percentage paw edema, individual animals", "setting": "[4]; D8", "result": "55.17% and 60.19% and 42.16% and 48.57% and 37.50% and 45.13% and 63.55% and 60.78% and 54.37% and 69.23%"}, {"measurement": "Paw volume, group mean", "setting": "[4]; D8", "result": 163.50}, {"measurement": "Percentage paw edema, group mean", "setting": "[4]; D8", "result": 53.67, "unit": "%"}, {"measurement": "Percentage of edema inhibition (protection)", "setting": "[4]; D8", "result": 0, "unit": "%"}, {"measurement": "Free radical protection activity (conclusion)", "setting": "[4]; edema progression compared to the control group", "result": "confirmed its activity"}]}]}
